Here are results for one substance from patent US20050163778A1, “Extracorporeal photopheresis in combination with anti-TNF treatment” (priority 2003, published 2005).

In the test the test system is TNFα production by monocyte-derived dendritic cells. As to the kind of experiment: Examples 2-4: TNFα production by LPS-stimulated monocyte-derived dendritic cells (ELISA of culture supernatants). As to conditions: 48 hours. Format: cell-based, human. On the procedure: In examples 1-5, Monocyte-derived dendritic cells were obtained as follows: PBMC were isolated from the peripheral blood of healthy donors by fractionation over Ficoll-Hypaque gradient centrifugation. Monocytes were positively selected using the MACS CD14 isolation kit and the Automacs system (Miltenyi Biotec, Germany). CD14^+ monocytes were cultured in complete RPMI supplemented with 40 ng/ml IL-4 and GM-CSF (R&D Systems) for 5 days. Cytokine secretion was induced by stimulation of the dendritic cells with lypopolysacharides (“LPS”, Sigma). Standard ELISA procedures were used to measure TNFα and IL-12 (R&D Systems) levels in culture supernatants.
Culture supernatants were harvested from these cultures at 48 hours for measurement of TNFα production. […] While each of these treatments represent a reduction from the baseline value of over 1000 pg/ml, the levels dropped to an average of less than 50 pg/ml when the method of the invention was used.
Culture supernatants were harvested from these cultures at 48 hours for quantitation of TNFα production. […] While each of these treatments represent a reduction from the baseline value of over 2300 pg/ml, the levels dropped to about 100 pg/ml when the method of the invention was used.
Culture supernatants were harvested from these cultures at 48 hours for measurement of TNFα production. Another group of dendritic cells were similarly treated and the culture supernatants were harvested from these cultures at 48 hours for quantitation of TNFα production.
A general note: ELISA stands for enzyme-linked immunosorbent assay.

For infliximab [Remicade mAb], the “TNFα in culture supernatant” value by setting is: (Example 2, increasing quantities of LPS, Remicade mAb 200 ng/ml, ECP-treated CD15+ cells 5×10^5 cells/well, baseline over 1000 pg/ml) “about 100 pg/ml”; (Example 3, 0.1 mg/ml LPS, Remicade mAb 200 ng/ml, ECP-treated CD15+ cells 5×10^5 cells/well, baseline over 2300 pg/ml) “about 500 pg/ml”; (Example 4, 8 ng/ml Remicade mAb, alone or with ECP) “greater than 1300 pg/ml”; (Example 4, about 2 ng/ml Remicade mAb, alone or with ECP) approximately 1000 pg/mL.
